Experiments:
Mamestra brassicae [1] = assay: Insecticidal activity against last-instar Mamestra brassicae larvae assessed as wing pad separation injected at 1 ug/larvae (reference value: 0%); format: functional
Mamestra brassicae [2] = assay: Insecticidal activity against last-instar Mamestra brassicae larvae assessed as larval-pupal intermediate injected at 5 ug/larvae (reference value: 0%); format: functional
Spodoptera litura [3] = assay: Insecticidal activity against last-instar Spodoptera litura larvae assessed as larval pupal intermediate at 50 ug/larvae topical application (reference value: […]); format: functional
Spodoptera litura [4] = assay: Insecticidal activity against last-instar Spodoptera litura larvae assessed as partial pupation injected at 0.4 ug/larvae (reference value: […]); format: functional
Spodoptera litura [5] = assay: Insecticidal activity against last-instar Spodoptera litura larvae assessed as normal pupae injected at 0.4 ug/larvae (reference value: 100%); format: functional
Mamestra brassicae [6] = assay: Insecticidal activity against last-instar Mamestra brassicae larvae assessed as normal pupae at 50 ug/larvae topical application (reference value: 90%); format: functional
Mamestra brassicae [7] = assay: Insecticidal activity against last-instar Mamestra brassicae larvae assessed as larval-pupal intermediate injected at 1 ug/larvae (reference value: 0%); format: functional
Mamestra brassicae [8] = assay: Insecticidal activity against last-instar Mamestra brassicae larvae assessed as partial pupation injected at 50 ug/larvae (reference value: 10%); format: functional
Vacuolar acid trehalase = biological target: T1, Vacuolar acid trehalase (Saccharomyces cerevisiae (strain ATCC 204508 / S288c) (Baker's yeast), UniProt P48016); assay: Inhibition of Saccharomyces cerevisiae trehalase; details: read-out: I50
T1 sequence (P48016 whole entry): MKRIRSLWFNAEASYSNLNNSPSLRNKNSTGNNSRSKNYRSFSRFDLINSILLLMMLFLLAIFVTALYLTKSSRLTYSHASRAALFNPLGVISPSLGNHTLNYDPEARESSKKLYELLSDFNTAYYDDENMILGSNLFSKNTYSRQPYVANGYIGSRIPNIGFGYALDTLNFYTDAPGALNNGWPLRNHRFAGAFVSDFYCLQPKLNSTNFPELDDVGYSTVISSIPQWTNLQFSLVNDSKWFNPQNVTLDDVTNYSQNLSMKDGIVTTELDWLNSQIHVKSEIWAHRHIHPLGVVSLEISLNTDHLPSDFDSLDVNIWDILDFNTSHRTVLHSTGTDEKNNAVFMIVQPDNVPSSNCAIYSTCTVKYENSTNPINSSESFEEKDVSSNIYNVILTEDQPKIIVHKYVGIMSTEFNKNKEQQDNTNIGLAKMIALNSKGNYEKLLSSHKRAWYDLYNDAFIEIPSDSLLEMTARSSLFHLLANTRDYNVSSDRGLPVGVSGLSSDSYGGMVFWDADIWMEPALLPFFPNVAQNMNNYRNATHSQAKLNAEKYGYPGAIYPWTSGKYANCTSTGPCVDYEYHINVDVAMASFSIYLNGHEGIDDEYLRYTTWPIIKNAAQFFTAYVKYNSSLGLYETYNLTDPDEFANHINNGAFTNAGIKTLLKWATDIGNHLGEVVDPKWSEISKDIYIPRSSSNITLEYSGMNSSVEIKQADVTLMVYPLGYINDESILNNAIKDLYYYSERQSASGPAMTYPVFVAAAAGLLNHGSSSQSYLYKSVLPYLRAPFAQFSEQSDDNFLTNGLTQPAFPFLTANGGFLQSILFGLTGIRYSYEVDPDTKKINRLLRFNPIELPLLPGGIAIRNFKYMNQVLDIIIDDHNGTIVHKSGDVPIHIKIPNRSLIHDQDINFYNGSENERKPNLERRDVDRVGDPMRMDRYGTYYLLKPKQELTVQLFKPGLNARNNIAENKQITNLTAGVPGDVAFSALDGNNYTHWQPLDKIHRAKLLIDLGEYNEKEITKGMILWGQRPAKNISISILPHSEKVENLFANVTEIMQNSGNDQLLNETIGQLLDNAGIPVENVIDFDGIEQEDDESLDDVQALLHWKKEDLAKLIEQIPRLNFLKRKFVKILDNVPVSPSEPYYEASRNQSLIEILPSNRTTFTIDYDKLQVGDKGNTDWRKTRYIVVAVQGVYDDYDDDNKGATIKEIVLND

Mamestra brassicae [9] = assay: Insecticidal activity against last-instar Mamestra brassicae larvae assessed as normal pupae at 50 ug/larvae oral administration (reference value: 90%); format: functional
Mamestra brassicae [10] = assay: Insecticidal activity against last-instar Mamestra brassicae larvae assessed as larval-pupal intermediate injected at 10 ug/larvae (reference value: 0%); format: functional
Trehalase (Bombyx mori) = biological target: T2, Trehalase (Bombyx mori) (UniProt P32358); assay: Inhibition of Bombyx mori trehalase activity in arborescent region of colleterial glands at 1 ug/pupa
T2 sequence (whole entry): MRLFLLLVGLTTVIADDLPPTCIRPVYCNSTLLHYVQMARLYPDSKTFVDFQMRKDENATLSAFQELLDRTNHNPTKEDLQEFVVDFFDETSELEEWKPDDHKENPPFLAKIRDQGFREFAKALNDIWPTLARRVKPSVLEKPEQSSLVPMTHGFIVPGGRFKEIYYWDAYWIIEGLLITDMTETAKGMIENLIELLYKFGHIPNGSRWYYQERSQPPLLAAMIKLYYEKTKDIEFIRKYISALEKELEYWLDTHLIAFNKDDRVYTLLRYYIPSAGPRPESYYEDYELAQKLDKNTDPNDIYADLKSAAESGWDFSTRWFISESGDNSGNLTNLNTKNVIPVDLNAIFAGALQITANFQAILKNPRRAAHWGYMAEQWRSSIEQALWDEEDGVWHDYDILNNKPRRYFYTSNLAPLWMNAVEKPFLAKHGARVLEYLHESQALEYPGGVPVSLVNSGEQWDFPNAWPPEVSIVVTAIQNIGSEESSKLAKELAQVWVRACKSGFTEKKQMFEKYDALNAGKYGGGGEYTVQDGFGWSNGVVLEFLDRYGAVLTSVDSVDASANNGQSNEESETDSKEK

Mamestra brassicae [11] = assay: Insecticidal activity against last-instar Mamestra brassicae larvae assessed as partial pupation at 50 ug/larvae oral administration (reference value: 10%); format: functional

## OCC1=C[C@H](N[C@H]2C[C@H](CO)[C@@H](O)[C@H](O)[C@H]2O)[C@H](O)[C@@H](O)[C@@H]1O [VALIDOXYLAMINE A]
Mamestra brassicae [1]
  Activity: 20%
Mamestra brassicae [2]
  Activity: 60%
Spodoptera litura [3]
  Activity: 5%
Spodoptera litura [4]
  Activity: 10%
Spodoptera litura [5]
  Activity: 85%
Mamestra brassicae [6]
  Activity: 60%
Mamestra brassicae [7]
  Activity: 27%
Mamestra brassicae [8]
  Activity: 0%
Vacuolar acid trehalase
  IC50: 3 nM
Mamestra brassicae [9]
  Activity: 90%
Mamestra brassicae [10]
  Activity: 80%
Trehalase (Bombyx mori)
  inhibition: 78%
Mamestra brassicae [11]
  Activity: 0%
